Laboratory results from patent EP4745138A1, “THIO-GLUTARIMIDO ISOINDOLINONE DERIVATIVE, BIFUNCTIONAL PROTEIN DEGRADER CONTAINING SAME, AND USES THEREOF” (Gluetacs Therapeutics (Shanghai) Co., Ltd., priority 2023, dated 2025).
Like-named read-outs stand apart in the source and are kept apart here.

Legend:
ALK = target: T1, ALK (Homo sapiens, UniProt Q96SW2+Q9HC35+Q9UM73); test: Western blot, target protein degradation in H2228 Cell; assay type: cell-based; details: substrate protein remaining %, treated at 500 nM and 50 nM, 24 hours
T1 construct: endogenous in cells; host or cells: H2228
Method: (§1) Conventional Western blot assay was performed to evaluate the effects of the compounds of the present disclosure on the expression of target proteins in cells.
(§2) (1) Cell Seeding and Protein Harvesting: The selected cells were processed according to the cell seeding procedure and protein harvesting procedure in Table II-2. Table II-2 Cell Seeding and Protein Harvesting Procedures
(§3) (2) To the collected supernatant, 5X SDS sample loading buffer was added, followed by denaturation at 95°C for 5 minutes. The denatured samples were then separated by SDS-PAGE electrophoresis on a polyacrylamide gel. Proteins were transferred to a nitrocellulose membrane (0.45 µm NC membrane), blocked with blocking buffer at room temperature for 1 hour, and subjected to antibody incubation and development procedures according to the antibody manufacturer's instructions (Cell Signaling Technology).
(§4) Half-Maximal Degradation Concentration value (the drug concentration required for degrading proteins by 50%, abbreviated as DC50) reads method: comparing the grayscale values of Western blot bands from drug-treated samples with those from blank DMSO-treated controls, and identifying the drug concentration range at which the grayscale value is half that of the DMSO-treated control bands.
(§5) DC50 values can be calculated using ImageJ software to measure grayscale values of Western blot bands from drug-treated samples. The concentration-response curve is fitted to estimate the drug concentration corresponding to half the grayscale value.
(§6) Target protein remaining (%) refers to the percentage of target protein remaining in cells after treatment with protein degrader compounds.
(§7) Calculation method for target protein remaining (%): Use ImageJ software to measure grayscale values of Western blot bands from drug (protein degrader)-treated samples. The grayscale value of drug-treated bands is divided by that of internal control protein bands, and the resulting quotient is normalized to obtain the relative percentage of remaining target protein after protein degrader treatment. Target protein degradation rate(%) = 1−target protein remaining(%). [formula]

[1] = target: T2, human Cereblon WT GST-tagged protein (Homo sapiens, UniProt Q96SW2); test: CRBN-binding affinity, HTRF (CEREBLON BINDING kit); details: for inhibition at 0.5 µM: read-out: Inhibition Rate at 0.5 µM (%); for inhibition at 2 µM: read-out: Inhibition Rate at 2 µM (%); for IC50: CRBN binding, HTRF
T2 construct: purchased CISBIO 64BDCRBNPEH
In short: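 Competitive HTRF binding: compounds diluted in diluent #9 incubated with GST-tagged wild-type human Cereblon, thalidomide-Red tracer and anti-GST Eu antibody. Final compound concentrations 2 µM and 0.5 µM.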

SR = test: Tumor cell proliferation inhibition (CellTiter-Meiluncell Luminescent Cell Viability Assay); details: Homo sapiens, 96 hours, Table I-1, designed based on the ALK inhibitors, read-out: Inhibitory activity (IC50, nM) SR
Method: The tumor cells used herein were cultured in a cell culture medium listed in table 3 at 37°C in an incubator with 5% CO2. Prior to experimentation, all cell lines used were correctly identified by STR profiling, and tested negative for mycoplasma contamination using a mycoplasma detection kit through routine screenings. Table 3. Tumor cells and cell culture medium used in the present disclosure
The IC50 values of the compounds of the present disclosure (including the compounds in Table 1, Table 2, and Examples) were determined using the CellTiter-Meiluncell Luminescent Cell Viability Assay Kit from Dalian Meilun Biotech Co., Ltd. The detailed procedure is as follows: Tumor cells were seeded in 96-well cell culture plates at the densities specified in Table 4. On the following day, the test compounds of the present disclosure were subjected to serial dilution. […] Subsequently, 0.5 µL of the test compound dilution was transferred into the 96-well plate containing the cells, with each well containing 100 µL of cell culture medium. […] Into the 96-well plate, the diluted test compounds and corresponding detection reagents were added, resulting in final test compound concentrations of 500 nM and 10 nM, respectively. The experimental procedure is described below using the diluted 2 µM test compound as an example.
0.5 µL of the aforementioned diluted compound of the present disclosure (including the compounds in Table 1, Table 2, and Examples) was added to the seeded cells in 100 µL of medium, yielding a final test compound concentration of 10 nM. After the cells were treated with the compounds of the present disclosure for a specified period, the cell viability assay reagent was added to the culture medium according to the kit's instructions to determine cell viability. […] All controls were treated using the same procedure as the compounds of the present disclosure. […] Seeding protocol and treatment time for tumor cells

IKZF1 = target: T3, IKZF1 (Homo sapiens, UniProt Q13422+Q96SW2); test: Western blot, substrate protein degradation in hPBMC Cell; assay type: cell-based; details: substrate protein remaining %, treated at 50 nM and 500 nM, 24 hours
T3 construct: endogenous in cells; host or cells: hPBMC
Method: as §1, §2, §3, §4, §5, §6, §7

GSPT1 = target: T4, GSPT1 (Homo sapiens, UniProt P15170+Q96SW2); test: as above; assay type: cell-based; details: substrate protein remaining %, treated at 50 nM and 500 nM, 24 hours
T4 construct: endogenous in cells; host or cells: hPBMC
Method: as §1, §2, §3, §4, §5, §6, §7

CK1α = target: T5, CK1α (Homo sapiens, UniProt P48729+Q96SW2); test: as above; assay type: cell-based; details: substrate protein remaining %, treated at 50 nM and 500 nM, 24 hours
T5 construct: endogenous in cells; host or cells: hPBMC
Method: as §1, §2, §3, §4, §5, §6, §7

IKZF3 = target: T6, IKZF3 (Homo sapiens, UniProt Q96SW2+Q9UKT9); test: as above; assay type: cell-based; details: substrate protein remaining %, treated at 50 nM and 500 nM, 24 hours
T6 construct: endogenous in cells; host or cells: hPBMC
Method: as §1, §2, §3, §4, §5, §6, §7

IKZF2 = target: T7, IKZF2 (Homo sapiens, UniProt Q96SW2+Q9UKS7); test: as above; assay type: cell-based; details: substrate protein remaining %, treated at 50 nM and 500 nM, 24 hours
T7 construct: endogenous in cells; host or cells: hPBMC
Method: as §1, §2, §3, §4, §5, §6, §7

WEE1 = test: as above; assay type: cell-based, Human; details: substrate protein remaining %, treated at 50 nM and 500 nM, 24 hours
Method: as §1, §2, §3, §4, §5, §6, §7

MM.1S = test: Tumor cell proliferation inhibition (CellTiter-Meiluncell Luminescent Cell Viability Assay); assay type: cell-based; details: MM.1S, 96 hours; for inhibition at 0.01 µM / inhibition at 0.5 µM: Homo sapiens, MM1.S; for inhibition at 0.01 µM: read-out: Inhibition Rate at 10 nM (%); for inhibition at 0.5 µM: 500 nM, read-out: Inhibition Rate at 500 nM (%)
In short: (§8)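 Following overnight seeding, tumor cells received serial compound dilutions to final levels that included 10 nM and 500 nM. Viability was assessed by luminescence at the end of the specified exposure time. Cultures were kept at 37°C with 5% CO2.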

CDK4 = target: T8, CDK4 (Homo sapiens, UniProt P11802); test: Western blot, target protein degradation in MDA-MB-231 Cell; assay type: cell-based; details: substrate protein remaining %, treated at 500 nM and 50 nM, 24 hours
T8 construct: endogenous in cells; host or cells: MDA-MB-231
In short: (§9)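 Target protein levels after compound exposure are quantified by immunoblot of denatured cell lysates. DC50 reflects the drug concentration at which band intensity falls to half that of DMSO-treated cells.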

CDK6 = target: T9, CDK6 (Homo sapiens, UniProt Q00534); test: as above; assay type: cell-based; details: substrate protein remaining %, treated at 500 nM and 50 nM, 24 hours
T9 construct: endogenous in cells; host or cells: MDA-MB-231
In short: as §9

MV-4-11 = test: Tumor cell proliferation inhibition (CellTiter-Meiluncell Luminescent Cell Viability Assay); assay type: cell-based; details: Homo sapiens, 96 hours, Table I-9, CDK4/6 inhibitors
In short: as §8

[2] = 10 nM, Table I-16, compounds of Formula (II)
[3] = Table I-16, compounds of Formula (II)

T6 sequence (Q9UKT9 whole entry): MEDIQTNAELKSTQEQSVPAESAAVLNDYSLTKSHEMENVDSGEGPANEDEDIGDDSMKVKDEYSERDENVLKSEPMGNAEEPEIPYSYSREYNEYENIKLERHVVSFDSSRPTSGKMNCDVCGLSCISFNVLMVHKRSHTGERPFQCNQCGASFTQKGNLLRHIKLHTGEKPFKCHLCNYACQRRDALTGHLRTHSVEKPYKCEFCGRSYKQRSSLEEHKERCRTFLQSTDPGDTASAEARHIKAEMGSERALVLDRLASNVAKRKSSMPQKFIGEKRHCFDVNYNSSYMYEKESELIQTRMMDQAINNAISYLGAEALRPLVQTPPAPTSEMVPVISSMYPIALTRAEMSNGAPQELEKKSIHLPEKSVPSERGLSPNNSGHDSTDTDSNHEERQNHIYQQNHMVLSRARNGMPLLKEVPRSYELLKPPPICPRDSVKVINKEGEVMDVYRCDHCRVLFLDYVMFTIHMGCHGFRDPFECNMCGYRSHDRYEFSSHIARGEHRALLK
T6 sequence (Q96SW2 whole entry): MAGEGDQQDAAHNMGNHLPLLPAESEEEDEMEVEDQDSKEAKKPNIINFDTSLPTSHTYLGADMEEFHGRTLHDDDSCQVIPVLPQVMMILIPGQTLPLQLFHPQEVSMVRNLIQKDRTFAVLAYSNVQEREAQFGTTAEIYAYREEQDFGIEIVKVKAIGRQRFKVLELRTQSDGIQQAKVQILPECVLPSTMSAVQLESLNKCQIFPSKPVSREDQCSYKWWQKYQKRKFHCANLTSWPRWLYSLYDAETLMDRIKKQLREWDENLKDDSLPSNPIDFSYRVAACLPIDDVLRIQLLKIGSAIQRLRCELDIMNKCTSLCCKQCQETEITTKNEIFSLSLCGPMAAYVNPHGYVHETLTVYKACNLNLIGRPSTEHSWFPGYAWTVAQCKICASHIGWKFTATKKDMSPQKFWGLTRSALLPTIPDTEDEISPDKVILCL
T6 sequence (Q16531 whole entry partner): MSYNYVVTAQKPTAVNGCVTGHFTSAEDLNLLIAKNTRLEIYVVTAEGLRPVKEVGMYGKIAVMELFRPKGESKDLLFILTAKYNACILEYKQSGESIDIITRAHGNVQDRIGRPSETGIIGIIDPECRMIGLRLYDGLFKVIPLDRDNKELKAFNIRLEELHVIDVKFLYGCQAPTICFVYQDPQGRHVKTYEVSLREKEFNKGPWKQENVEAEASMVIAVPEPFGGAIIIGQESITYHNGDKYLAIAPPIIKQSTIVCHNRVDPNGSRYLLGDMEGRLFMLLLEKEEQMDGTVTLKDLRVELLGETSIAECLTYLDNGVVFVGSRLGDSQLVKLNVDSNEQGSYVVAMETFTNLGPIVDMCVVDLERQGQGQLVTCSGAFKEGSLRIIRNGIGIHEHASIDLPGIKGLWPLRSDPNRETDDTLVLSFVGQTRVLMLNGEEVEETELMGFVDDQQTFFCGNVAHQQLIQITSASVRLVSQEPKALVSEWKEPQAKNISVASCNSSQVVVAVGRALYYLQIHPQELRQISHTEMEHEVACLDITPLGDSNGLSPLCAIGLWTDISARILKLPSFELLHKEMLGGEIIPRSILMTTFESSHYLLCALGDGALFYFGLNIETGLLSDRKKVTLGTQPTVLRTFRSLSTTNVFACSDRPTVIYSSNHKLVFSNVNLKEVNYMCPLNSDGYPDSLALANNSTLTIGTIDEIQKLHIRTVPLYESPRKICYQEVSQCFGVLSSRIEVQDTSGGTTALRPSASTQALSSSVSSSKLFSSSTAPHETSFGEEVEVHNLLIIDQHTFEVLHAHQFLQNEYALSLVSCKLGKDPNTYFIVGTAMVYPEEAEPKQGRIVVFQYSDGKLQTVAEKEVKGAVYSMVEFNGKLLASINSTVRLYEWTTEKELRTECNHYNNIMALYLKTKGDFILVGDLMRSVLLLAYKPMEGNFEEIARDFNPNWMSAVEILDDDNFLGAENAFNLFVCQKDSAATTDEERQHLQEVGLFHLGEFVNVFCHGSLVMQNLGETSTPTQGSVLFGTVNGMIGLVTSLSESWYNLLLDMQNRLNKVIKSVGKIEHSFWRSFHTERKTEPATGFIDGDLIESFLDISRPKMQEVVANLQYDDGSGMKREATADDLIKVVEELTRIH
T3 sequence (Q13422 whole entry): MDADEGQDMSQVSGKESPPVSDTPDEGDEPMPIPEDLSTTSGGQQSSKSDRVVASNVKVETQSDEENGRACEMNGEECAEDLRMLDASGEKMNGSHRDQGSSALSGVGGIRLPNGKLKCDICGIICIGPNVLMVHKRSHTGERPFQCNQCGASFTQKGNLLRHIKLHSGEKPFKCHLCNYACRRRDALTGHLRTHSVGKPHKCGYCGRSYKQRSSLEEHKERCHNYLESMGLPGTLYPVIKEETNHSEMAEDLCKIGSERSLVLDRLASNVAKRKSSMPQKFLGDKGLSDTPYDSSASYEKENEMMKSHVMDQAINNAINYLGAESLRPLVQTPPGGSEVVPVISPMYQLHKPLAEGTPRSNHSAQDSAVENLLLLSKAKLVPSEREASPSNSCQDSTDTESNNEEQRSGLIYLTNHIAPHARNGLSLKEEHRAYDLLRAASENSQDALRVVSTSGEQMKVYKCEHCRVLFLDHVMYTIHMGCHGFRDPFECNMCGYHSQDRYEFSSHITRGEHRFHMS
T3 sequence (Q96SW2 whole entry): as the sequence (Q96SW2 whole entry) above
T3 sequence (Q16531 whole entry partner): as the sequence (Q16531 whole entry partner) above
T2 sequence (Q96SW2 whole entry): as the sequence (Q96SW2 whole entry) above
T7 sequence (Q9UKS7 whole entry): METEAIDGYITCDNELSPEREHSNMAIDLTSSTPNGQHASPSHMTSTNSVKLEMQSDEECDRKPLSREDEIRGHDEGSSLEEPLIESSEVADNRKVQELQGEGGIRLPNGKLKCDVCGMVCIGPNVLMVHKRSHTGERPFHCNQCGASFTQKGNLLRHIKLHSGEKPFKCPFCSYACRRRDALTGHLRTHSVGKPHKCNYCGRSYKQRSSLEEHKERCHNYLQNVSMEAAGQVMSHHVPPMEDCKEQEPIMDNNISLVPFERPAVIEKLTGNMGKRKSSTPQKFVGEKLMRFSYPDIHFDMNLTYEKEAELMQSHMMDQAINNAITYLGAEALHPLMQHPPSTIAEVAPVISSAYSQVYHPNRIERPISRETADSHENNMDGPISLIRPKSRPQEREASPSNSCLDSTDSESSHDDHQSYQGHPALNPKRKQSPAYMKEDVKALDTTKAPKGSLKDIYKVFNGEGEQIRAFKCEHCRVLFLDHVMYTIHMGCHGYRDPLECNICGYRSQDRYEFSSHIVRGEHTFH
T7 sequence (Q96SW2 whole entry): as the sequence (Q96SW2 whole entry) above
T7 sequence (Q16531 whole entry partner): as the sequence (Q16531 whole entry partner) above
T4 sequence (P15170 whole entry): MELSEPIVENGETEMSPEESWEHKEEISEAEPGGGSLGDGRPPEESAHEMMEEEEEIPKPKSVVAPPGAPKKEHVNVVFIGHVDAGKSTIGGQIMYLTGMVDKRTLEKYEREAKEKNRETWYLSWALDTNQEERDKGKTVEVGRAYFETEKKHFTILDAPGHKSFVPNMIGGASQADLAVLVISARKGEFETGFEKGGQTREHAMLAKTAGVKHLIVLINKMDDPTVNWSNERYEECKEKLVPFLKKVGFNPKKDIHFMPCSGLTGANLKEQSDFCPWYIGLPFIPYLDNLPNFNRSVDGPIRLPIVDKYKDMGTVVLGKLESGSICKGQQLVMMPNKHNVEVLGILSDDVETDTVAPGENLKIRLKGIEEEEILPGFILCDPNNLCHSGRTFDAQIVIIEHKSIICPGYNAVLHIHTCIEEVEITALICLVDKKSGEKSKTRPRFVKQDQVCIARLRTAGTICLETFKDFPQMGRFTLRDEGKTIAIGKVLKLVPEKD
T4 sequence (Q96SW2 whole entry): as the sequence (Q96SW2 whole entry) above
T4 sequence (Q16531 whole entry partner): as the sequence (Q16531 whole entry partner) above
T5 sequence (P48729 whole entry): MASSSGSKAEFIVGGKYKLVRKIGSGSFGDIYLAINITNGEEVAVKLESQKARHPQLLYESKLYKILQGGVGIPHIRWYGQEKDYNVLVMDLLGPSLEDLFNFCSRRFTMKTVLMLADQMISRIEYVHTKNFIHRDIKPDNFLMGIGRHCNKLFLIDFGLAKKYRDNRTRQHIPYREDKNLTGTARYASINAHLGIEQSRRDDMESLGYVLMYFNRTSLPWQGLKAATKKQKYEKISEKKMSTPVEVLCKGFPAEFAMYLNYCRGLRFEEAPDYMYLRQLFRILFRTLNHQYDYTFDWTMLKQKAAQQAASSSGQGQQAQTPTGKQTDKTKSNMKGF
T5 sequence (Q96SW2 whole entry): as the sequence (Q96SW2 whole entry) above
T5 sequence (Q16531 whole entry partner): as the sequence (Q16531 whole entry partner) above
T9 sequence (Q00534 whole entry): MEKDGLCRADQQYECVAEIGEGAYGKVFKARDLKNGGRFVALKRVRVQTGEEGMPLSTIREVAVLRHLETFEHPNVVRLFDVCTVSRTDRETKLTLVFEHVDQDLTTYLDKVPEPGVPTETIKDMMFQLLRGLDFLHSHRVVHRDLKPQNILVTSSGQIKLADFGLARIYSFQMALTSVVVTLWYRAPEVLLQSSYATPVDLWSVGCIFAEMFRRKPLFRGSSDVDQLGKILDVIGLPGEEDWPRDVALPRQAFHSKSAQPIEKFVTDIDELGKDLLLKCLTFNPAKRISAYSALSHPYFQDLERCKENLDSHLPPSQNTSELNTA

Row | SMILES | IC50 [1] | Degradation of substrate protein IKZF1 (IKZF1) | Degradation of substrate protein GSPT1 (GSPT1) | Degradation of substrate protein CK1α (CK1α) | Degradation of substrate protein IKZF3 (IKZF3) | Degradation of substrate protein IKZF2 (IKZF2) | Degradation of substrate protein WEE1 (WEE1) | other results
1 | CCc1cc2c(cc1N1CCC(N3CCN(Cc4ccc5c(c4)CN(C4CCC(=O)NC4=O)C5=S)CC3)CC1)C(C)(C)c1[nH]c3cc(C#N)ccc3c1C2=O (centres unmarked) [GT-05097, 8-(4-(4-((2-(2,6-dioxopiperidin-3-yl)-1-thioxoisoindolin-5-yl)methyl)piperazin-1-yl)piperidin-1-yl)-9-ethyl-6,6-dimethyl-11-oxo-6,11-dihydro-5H-benzo[b]carbazole-3-carbonitrile] | – | – | – | – | – | – | – | Degradation of substrate protein ALK (ALK): A (0% ≤ substrate protein remaining % ≤ 80%); inhibition at 0.5 µM [1]: 40 to 53%; inhibition at 2 µM [1]: 80 to 100%; IC50 (SR): 20 to 30 nM
2 | O=C1CCC(N2Cc3ccccc3C2=S)C(=O)N1 (centres unmarked) [GT-05563, 3-(1-thioxoisoindolin-2-yl)piperidine-2,6-dione] | < 500 nM | A (0% ≤ substrate protein remaining % ≤ 80%) | A (0% ≤ substrate protein remaining % ≤ 80%) | B (80%< substrate protein remaining %≤ 100%) | A (0% ≤ substrate protein remaining % ≤ 80%) | A (0% ≤ substrate protein remaining % ≤ 80%) | A (0% ≤ substrate protein remaining % ≤ 80%) | –
3 | O=C1CCC(N2Cc3ccc(CO)cc3C2=S)C(=O)N1 (centres unmarked) [GT-05566, 3-(6-(hydroxymethyl)-1-thioxoisoindolin-2-yl)piperidine-2,6-dione] | < 500 nM | A (0% ≤ substrate protein remaining % ≤ 80%) | A (0% ≤ substrate protein remaining % ≤ 80%) | B (80%< substrate protein remaining %≤ 100%) | A (0% ≤ substrate protein remaining % ≤ 80%) | A (0% ≤ substrate protein remaining % ≤ 80%) | A (0% ≤ substrate protein remaining % ≤ 80%) | inhibition at 0.01 µM (MM.1S; [2]): 20 to 30%
4 | O=C1CCC(N2Cc3cc(CO)ccc3C2=S)C(=O)N1 (centres unmarked) [GT-06977, 3-(5-(hydroxymethyl)-1-thioxoisoindolin-2-yl)piperidine-2,6-dione] | < 500 nM | B (80%< substrate protein remaining %≤ 100%) | B (80%< substrate protein remaining %≤ 100%) | B (80%< substrate protein remaining %≤ 100%) | A (0% ≤ substrate protein remaining % ≤ 80%) | B (80%< substrate protein remaining %≤ 100%) | B (80%< substrate protein remaining %≤ 100%) | inhibition at 0.5 µM (MM.1S; [3]): 35 to 40%; Inhibition Rate at 10 nM (%) (MM.1S; [2]): ln6
5 | O=C1CCC(N2Cc3c(CO)cccc3C2=S)C(=O)N1 (centres unmarked) [GT-06981, 3-(4-(hydroxymethyl)-1-thioxoisoindolin-2-yl)piperidine-2,6-dione] | < 500 nM | B (80%< substrate protein remaining %≤ 100%) | B (80%< substrate protein remaining %≤ 100%) | B (80%< substrate protein remaining %≤ 100%) | A (0% ≤ substrate protein remaining % ≤ 80%) | B (80%< substrate protein remaining %≤ 100%) | B (80%< substrate protein remaining %≤ 100%) | inhibition at 0.01 µM (MM.1S; [2]): 20 to 30%; inhibition at 0.5 µM (MM.1S; [3]): 35 to 40%
6 | CN(C)C(=O)c1cc2cnc(Nc3ccc(N4CCN(Cc5ccc6c(c5)CN(C5CCC(=O)NC5=O)C6=S)CC4)cn3)nc2n1C1CCCC1 (centres unmarked) [GT-08765, 7-cyclopentyl-2-((5-(4-((2-(2,6-dioxopiperidin-3-yl)-1-thioxoisoindolin-5-yl)methyl)piperazin-1-yl)pyridin-2-yl)amino)-N,N-dimethyl-7H-pyrrolo[2,3-d]pyrimidine-6-carboxamide] | – | – | – | – | – | – | – | inhibition at 0.5 µM [1]: 40 to 53%; inhibition at 2 µM [1]: 80 to 100%; Degradation of substrate protein CDK4 (CDK4): A (0% ≤ substrate protein remaining % ≤ 80%); Degradation of substrate protein CDK6 (CDK6): A (0% ≤ substrate protein remaining % ≤ 80%); inhibition at 0.01 µM (MM.1S; 10 nM, Table I-9, CDK4/6 inhibitors): 30 to 40%; inhibition at 0.5 µM (MM.1S; Table I-9, CDK4/6 inhibitors): 40 to 50%
7 | CC(=O)c1c(C)c2cnc(Nc3ccc(N4CCN(Cc5cccc6c5CN(C5CCC(=O)NC5=O)C6=S)CC4)cn3)nc2n(C2CCCC2)c1=O (centres unmarked) [GT-08772, 3-(4-((4-(6-((6-acetyl-8-cyclopentyl-5-methyl-7-oxo-7,8-dihydropyrido[2,3-d]pyrimidin-2-yl)amino)pyridin-3-yl)piperazin-1-yl)methyl)-1-thioxoisoindolin-2-yl)piperidine-2,6-dione] | – | – | – | – | – | – | – | Degradation of substrate protein CDK4 (CDK4): A (0% ≤ substrate protein remaining % ≤ 80%); Degradation of substrate protein CDK6 (CDK6): A (0% ≤ substrate protein remaining % ≤ 80%); inhibition at 0.01 µM (MV-4-11; MV4-11, 10 nM, read-out: Inhibition Rate at 10 nM (%)): 30 to 40%; inhibition at 0.5 µM (MV-4-11; MV4-11, 500 nM, read-out: Inhibition Rate at 500 nM (%)): 40 to 50%
